Test results as given in patent US8637528B2, “Use of PDE7 inhibitors for the treatment of movement disorders” (Omeros Corporation, priority 2007, dated 2014).
“Also recorded” adds a separate entry of the source. Where two headings read alike, the source gives them in different places.

Tests used:
PDE7A = PDE7A (Homo sapiens (Human), UniProt Q13946); assay: PDE7 phosphodiesterase scintillation proximity assay (SPA), PDE7A; type: biochemical
MPTP-treated mice = assay: inked paw stride length in the MPTP mouse model of Parkinson's disease, panel of PDE7 inhibitors (Example 7); type: in vivo; conditions: 20 minutes after dose
Experimental: Adult male C57BL/6J; retired breeders, aged between 7-9 months Charles River Laboratories, Wilmington, Mass.), singly housed. Three groups of 35 mice were tested in series one week apart.
Mice received 2 subcutaneous injections of methylphenyltetrahydropyridine (“MPTP”) at a dose of 15 mg/kg (free base) with a 10-12 hour interval between injections. Control mice (sham lesion groups) were administered saline instead of MPTP.
Prior to injection with MPTP or saline, animals were pre-trained to walk across a clean sheet of paper into their home cage without stopping. For assessment of stride length, animals had their forepaws placed in black ink and the length of forepaw steps during normal walking (in a straight line only) was measured. The animals were immediately put back into their home cage upon completion of the task. Stride length was determined by measuring the distance between each step on the same side of the body, measuring from the middle toe of the first step to the heel of the second step. An average of at least four clear steps was calculated. The schedule for this experiment was as follows:
Because of the wide variation in aqueous solubility among these compounds, a number of different formulations were required. L-dopa was administered in 100 μl of phosphate buffered saline. For animals treated with L-dopa, the dopa decarboxylase inhibitor benserazide (100 μL of a 12.5 mg/kg solution) was administered 15 minutes prior to treatment with L-dopa in order to minimize the destruction of L-dopa in the peripheral blood. […] Therefore, the treatment effects observed are due solely to the PDE7 inhibitory compounds themselves. […] This phenomenon of “overshoot” has also been observed with L-dopa in MPTP-treated mice in which lower doses ameliorate hypoactivity while higher doses induce dyskinesias or uncontrolled movements (Lundblad M. et al., Exp Neurol.194(1):66-75 (2005); Pearce R. K. et al., Mov Disord. 10(6):731-40 (1995); Fredriksson, A. et al, Pharmacol-Toxicol. 67(4): 295-301 (1990)).
Retired breeder male mice were treated with either saline or 2×15 mg/kg MPTP to induce a Parkinsonian state (neurochemical loss of dopamine with corresponding behavioral deficits). On day one baseline stride length was measured and then mice were treated with either MPTP or with saline as a control. On day eight stride length was measured again, and the control value for stride length was derived from the stride length of saline-treated animals. The animals were then divided randomly into treatment groups. Compound OM955 (compound 3) was tested at 0.1 mg/kg, at 0.5 mg/kg, and at 0.1 mg/kg in combination with 1 mg/kg L-dopa.

[1] = plasma and brain concentration in mice after intraperitoneal injection (LC/MS/MS); type: in vivo, mouse; conditions: mouse, at 0.5 mg/kg, analogous calculation
Experimental: Adult male C57BL/6J; retired breeders, aged between 7-9 months (Jackson Laboratory, Bar Harbor, Me., USA), singly housed.
Just prior to the harvesting of tissues, mice were anesthetized with avertin. Samples of whole brain or plasma were collected from three animals per time point at 15 minutes, 30 minutes, 60 minutes, 120 minutes, and 240 minutes after injection. Blood samples were collected by retro-orbital bleeding. Plasma was prepared and red cells were removed by centrifugation. The mice were perfused with saline to remove contaminating blood. The brains were removed and rapidly frozen in liquid nitrogen for subsequent analysis. The plasma and brain samples were stored at −80° C. or on dry ice and the concentration of compound was determined by LC/MS/MS analysis as follows:
Whole brain tissue was homogenized using a Mini-Beaddeater-8™ (BioSpec Products, Bartlesville, Okla.). Plasma or homogenized brain samples were precipitated with acetonitrile and filtered in 96-well format using Captiva 0.20 micron filtration plates (Varian Corp, Lake Forest, Calif.). Filtrates were evaporated under nitrogen to dryness at 50° C. and were then reconstituted for LC-MS analysis.
Quantitative measurements for inhibitory compound in plasma and brain samples were obtained using a Thermo Ultra triple quadrupole mass spectrometer (Thermo Fisher Scientific, San Jose, Calif.), utilizing electrospray ionization in the multiple reaction monitoring mode of data acquisition. Sample extracts were injected onto a 2.1×30 mm packed Xterra C18-MS high pressure liquid chromatography (HPLC) column (Waters Corp, Milford, Mass.). The mobile phase eluting the compound from the HPLC column was applied using a Thermo Surveyor MS Plus HPLC quaternary pumping system (Thermo Fisher Scientific, San Jose, Calif.) and a HTC PAL autoinjector (LEAP Technologies, Chapel Hill, N.C.).

PDE7B = PDE7B (Homo sapiens (Human), UniProt Q9NP56); assay: PDE7 phosphodiesterase scintillation proximity assay (SPA), PDE7B; type: biochemical
Chain of PDE7B (Q9NP56 107-450 limits assumed): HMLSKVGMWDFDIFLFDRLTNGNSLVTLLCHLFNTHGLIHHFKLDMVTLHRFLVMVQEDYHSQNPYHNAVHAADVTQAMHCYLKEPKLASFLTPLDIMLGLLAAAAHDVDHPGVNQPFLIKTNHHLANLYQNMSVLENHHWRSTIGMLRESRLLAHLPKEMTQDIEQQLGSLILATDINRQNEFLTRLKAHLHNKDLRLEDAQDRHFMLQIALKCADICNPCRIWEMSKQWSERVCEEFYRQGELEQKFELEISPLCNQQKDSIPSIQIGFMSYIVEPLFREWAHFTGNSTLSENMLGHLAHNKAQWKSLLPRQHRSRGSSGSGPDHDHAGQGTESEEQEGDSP

[2] = target: T1, Catechol-O-Methyltransferase (COMT) (Sus scrofa, UniProt D3K5L3); conditions: read-out: Positive Control Expected IC50 (historical), COMT; historical value; cited from earlier work
T1 sequence (D3K5L3 1-270): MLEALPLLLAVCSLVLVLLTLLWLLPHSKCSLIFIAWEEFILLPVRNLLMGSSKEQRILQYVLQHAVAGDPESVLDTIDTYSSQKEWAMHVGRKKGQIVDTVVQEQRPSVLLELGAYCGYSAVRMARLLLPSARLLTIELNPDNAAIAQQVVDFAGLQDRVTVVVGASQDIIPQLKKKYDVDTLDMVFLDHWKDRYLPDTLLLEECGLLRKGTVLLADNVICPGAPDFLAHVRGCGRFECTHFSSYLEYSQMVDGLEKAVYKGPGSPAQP

[3] = target: T1, Catechol-O-Methyltransferase (COMT); assay: biochemical; type: biochemical, pig
Tyrosine Hydroxylase [4] = target: T2, Tyrosine Hydroxylase (Rattus norvegicus (Rat), UniProt P04177); assay: Tyrosine Hydroxylase enzyme assay; type: biochemical; conditions: read-out: Positive Control Observed IC50, Tyrosine Hydroxylase
T2 sequence (P04177 whole entry): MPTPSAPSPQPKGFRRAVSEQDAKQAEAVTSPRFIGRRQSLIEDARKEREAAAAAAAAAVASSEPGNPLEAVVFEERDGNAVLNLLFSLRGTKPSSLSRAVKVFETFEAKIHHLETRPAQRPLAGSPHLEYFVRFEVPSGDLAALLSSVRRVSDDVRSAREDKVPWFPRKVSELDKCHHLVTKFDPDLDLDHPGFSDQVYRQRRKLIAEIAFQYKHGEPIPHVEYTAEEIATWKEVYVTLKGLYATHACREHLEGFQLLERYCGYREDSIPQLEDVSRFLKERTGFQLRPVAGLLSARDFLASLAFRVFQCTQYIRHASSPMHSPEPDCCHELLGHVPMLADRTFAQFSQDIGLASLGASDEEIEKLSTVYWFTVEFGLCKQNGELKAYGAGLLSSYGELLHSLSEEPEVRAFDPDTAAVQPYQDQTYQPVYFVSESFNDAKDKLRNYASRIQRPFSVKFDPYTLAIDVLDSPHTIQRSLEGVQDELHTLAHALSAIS
Experimental: Tyrosine Hydroxylase was assayed as described in Roskoski, R., Jr., et al., J. Biochem 218:363-370 (1993) with the following modifications. Tyrosine Hydroxylase was isolated from Wistar rat brain. The substrate was 100 μM L-[3,5-^3H]Tyrosine+L-Tyrosine. The vehicle control was 1% DMSO. Compound OM69 was tested at 10 μM in incubation buffer (125 mM MES, pH 6.0, 0.5 mg/ml Catalase, 12.5 mM DTT, 0.5 mM (6R)-5,6,7,8-Tetrahydrobiopterin). The reaction was pre-incubated for 15 minutes at 37° C. Tyrosine Hydroxylase enzyme was added, and the reaction was incubated for 20 minutes at 37° C. [^3H]-H20 was quantitated.

Tyrosine Hydroxylase [5] = target: T2, Tyrosine Hydroxylase; conditions: historical value; read-out: Positive Control Expected IC50 (historical), Tyrosine Hydroxylase; cited from earlier work

Chain of PDE7A (Q13946 whole entry, looked up): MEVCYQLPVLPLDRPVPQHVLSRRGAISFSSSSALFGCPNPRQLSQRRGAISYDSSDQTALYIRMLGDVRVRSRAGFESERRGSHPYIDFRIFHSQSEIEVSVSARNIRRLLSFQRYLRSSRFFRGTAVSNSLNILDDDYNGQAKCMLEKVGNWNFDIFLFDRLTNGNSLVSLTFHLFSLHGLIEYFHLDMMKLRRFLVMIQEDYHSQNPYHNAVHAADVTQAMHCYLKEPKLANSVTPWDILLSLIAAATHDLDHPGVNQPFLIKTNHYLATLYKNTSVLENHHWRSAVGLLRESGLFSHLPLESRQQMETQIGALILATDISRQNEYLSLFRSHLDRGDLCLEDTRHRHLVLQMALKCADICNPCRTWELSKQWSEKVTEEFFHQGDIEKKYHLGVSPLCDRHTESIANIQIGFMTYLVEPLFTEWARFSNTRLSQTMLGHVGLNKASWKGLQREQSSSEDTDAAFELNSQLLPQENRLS

In the case of COc1cc(N)ccc1-c1nc2c(C)nn(C3CCCCC3)c2c(=O)[nH]1 [OM056], the “potency of PDE7A inhibition, in words” value (PDE7A) is reported as “high potency”, the “effect on stride length, in words” value (MPTP-treated mice; OM056 0.05 mg/kg) is reported as “statistically significant increase; also recorded: full recovery of baseline stride length” and the “maximal brain concentration at dose where efficacy was observed” value [1] is reported as 358 nM. The “potency of PDE7B inhibition, in words” value (PDE7B) was “high potency” and the IC50 (PDE7B; unit inferred) was 9.27 nM.
With CC(=O)Nc1ccc(-c2nn(C)/c(=N/C3CCCCC3)s2)cc1 [OM956] the “potency of PDE7A inhibition, in words” value (PDE7A) was “moderate potency”, the “effect on stride length, in words” value (MPTP-treated mice; OM956 0.5 mg/kg) was “statistically significant increase; also recorded: full recovery of baseline stride length” and the “maximal brain concentration at dose where efficacy was observed” value [1] was 5260 nM. The “potency of PDE7B inhibition, in words” value (PDE7B) was “moderate potency”.
For O=[N+]([O-])c1cc(O)c(O)c([N+](=O)[O-])c1 [3,5-Dinitrocatechol, reference compound], the IC50 [2] is listed as 310 nM and the IC50 [3] is listed as 606 nM.
For C[C@](N)(Cc1ccc(O)cc1)C(=O)O [α-Methyl-L-P-Tyrosine, reference compound], the IC50 (Tyrosine Hydroxylase [4]) is given as 20200 nM and the IC50 (Tyrosine Hydroxylase [5]) is given as 20000 nM.
